Data published in US9204649B2 (priority 2011, dated 2015).

Tests used:
[1] = log P (pH 2.7) given with the preparation examples; type: physicochemical; details: for logP: pH 2.7, pH 2.7
Phytophthora infestans = type: in vivo; details: tomato young plants, protective spray, active ingredient concentration 10 ppm, evaluation 3 days after inoculation; 0% = control, 100% = no infection

| Compound | log P (pH 2.7) ([1]; pH 2.7) | logP [1] | chromatographic logP (physchem; pH 2.3) | chromatographic logP (physchem; pH 7.8) | logP ([1]; reversed-phase HPLC column (C18)) | Eff (efficacy) (Phytophthora infestans) [%] |
| --- | --- | --- | --- | --- | --- | --- |
| CC(C)(C)OC(=O)N1CCC(c2nc(C=NO)cs2)CC1 [A, tert-Butyl 4-{4-[(hydroxyimino)methyl]-1,3-thiazol-2-yl}piperidine-1-carboxylate] | 2.38 | 2.25 |  |  |  |  |
| O=C(O)C1CC(c2csc(C3CCN(C(=O)Cn4nc(C(F)F)cc4C(F)F)CC3)n2)=NO1 (stereo not drawn) [D, 3-[2-(1-{[3,5-Bis(difluoromethyl)-1H-pyrazol-1-yl]acetyl}piperidin-4-yl)-1,3-thiazol-4-yl]-4,5-dihydro-1,2-oxazole-5-carboxylic acid] |  | 1.77 |  |  |  |  |
| O=C(OC1CCCCC1Cl)C1CC(c2csc(C3CCN(C(=O)Cn4nc(C(F)F)cc4C(F)F)CC3)n2)=NO1 (stereo not drawn) [Example I-5, 2-Chlorocyclohexyl 3-[2-(1-{[3,5-bis(difluoromethyl)-1H-pyrazol-1-yl]acetyl}piperidin-4-yl)-1,3-thiazol-4-yl]-4,5-dihydro-1,2-oxazole-5-carboxylate] |  |  | 3.42 | 3.5 | 3.43 | 93 |
| CCOC(=O)C1CC(c2csc(C3CCN(C(=O)OC(C)(C)C)CC3)n2)=NO1 (stereo not drawn) [B, tert-Butyl 4-{4-[5-(ethoxycarbonyl)-4,5-dihydro-1,2-oxazol-3-yl]-1,3-thiazol-2-yl}piperidine-1-carboxylate] |  | 3.14 |  |  |  |  |
| COC(=O)C1CC(c2csc(C3CCN(C(=O)Cn4nc(C(F)F)cc4C(F)F)CC3)n2)=NO1 (stereo not drawn) [Example I-1, methyl 3-[2-(1-{[3,5-bis(difluoromethyl)-1H-pyrazol-1-yl]acetyl}piperidin-4-yl)-1,3-thiazol-4-yl]-4,5-dihydro-1,2-oxazole-5-carboxylate] |  | 2.26 | 2.28 | 2.28 |  | 75 |
